The values below come from publication PMC4390470 (Investigational new drugs, 2015).

Like-named read-outs stand apart in the source and are kept apart here.

The test system of data set [1] is metastatic castration-resistant prostate cancer (mCRPC). To be noted: cited from earlier work.
For data set [2] the following is noted: human, in vivo, 28 days.
The conditions of data set [3]: in vivo.
The conditions of data set [4]: in vivo. This is another data set of the same source.

As for `CC(=O)O[C@H]1CC[C@@]2(C)C(=CC[C@@H]3[C@@H]2CC[C@]2(C)C(c4cccnc4)=CC[C@@H]32)C1` [Abiraterone acetate], the “Median OS” value in data set [1] (chemotherapy-naïve mCRPC, versus placebo 27.2, ref [16]) is on record as “not reached”; in data set [1] (mCRPC following docetaxel therapy, versus placebo 11.2, ref [15]), 15.8 months.

In the case of `CNC(=O)c1ccc2cc([C@@]3(O)CCn4cncc43)ccc2c1` [orteronel], the “Recommended phase 2 dose (RP2D) of orteronel in combination with DP” value in data set [2] is 400 mg BID. In addition, in data set [3], the Cardiovascular profile result is “acceptable cardiovascular profile”. In addition, in data set [4], the “AUC0-tau and Cmax, alone versus in combination” value is “similar”; the “Mean plasma concentration-time profile, alone versus in combination” value is listed as “similar”.

For the compound `CC(=O)O[C@@]12CO[C@@H]1C[C@H](O)[C@@]1(C)C(=O)[C@H](O)C3=C(C)[C@@H](OC(=O)[C@H](O)[C@@H](NC(=O)OC(C)(C)C)c4ccccc4)C[C@@](O)([C@@H](OC(=O)c4ccccc4)[C@H]21)C3(C)C` [docetaxel], under “human, plasma, other: orteronel oral (PO), docetaxel intravenous infusion”, the Tmax (commonly the time from dosing to the highest level) was about 1 h. In addition, the “Mean plasma concentration-time profile, alone versus in combination” value (phase 2, orteronel with/without docetaxel and docetaxel with/without orteronel) is recorded as “similar”. The “AUC0-tau and Cmax, alone versus in combination” value (phase 2, orteronel with/without docetaxel and vice versa) was “similar”.

Regarding `CNC(=O)c1ccc(N2C(=S)N(c3ccc(C#N)c(C(F)(F)F)c3)C(=O)C2(C)C)cc1F` [enzalutamide], the “Median OS” value in data set [1] (chemotherapy-naïve mCRPC, versus placebo 31.0, ref [14]) is on record as “not reached”; in data set [1] (mCRPC following docetaxel therapy, versus placebo 13.6, ref [17]) it was 18.4 months.
